The series can be described thus: Solubility of nonionic surfactant in SDBS. The format is physicochemical. To be noted: in combination with SDBS at the stated ratio.

Here are results for one substance from patent publication US20250368664A1, “SURFACTANTS HAVING PEFA COMPOUNDS AND METHODS OF USE THEREOF” (Ruby Bio Inc., priority 2022, published 2025).

cetearyl glucoside [CGlucoside]: the “solubility in SDBS” value is “insoluble”.
